# Test results from patent US20050064027A1, “Bioadhesive drug delivery system with enhanced gastric retention” (Spherics, Inc., priority 2001, published 2005).
# Assay: Release kinetics from multi-drug macrospheres
# Assay type: physicochemical
# Conditions: salicylate in outer Eudragit RL 100 coating, acyclovir in core
# Description: Fluidized bed spraying of 5% RL 100-coated 40% Acyclovir (ACV) loaded cores with 25% sodium salicylate w/w in a 10% RL 100-coating was then used to produce multi-drug macrospheres.
# The starting material was the product of Example 2 (5% w/w RL 100 coated 40% ACV cores and overcoat with 10% RL 100 coating containing 25% w/w sodium salicylate). Overcoating with a 10% w/w coating of RL100 containing 25% w/w salicylate was used to produce a biphasic drug system. Sodium salicylate should be quickly delivered followed by acyclovir release. A 176.0 g lot of beads, 40% w/w Acyclovir (1.4-2.36 mm) was used as the cores for the coatings.
# The release kinetics of the two drugs from the macrospheres of Example 6 were then determined. FIG. 6 is a graph of release of acyclovir (ACV) and salicylate as a function of percent total acyclovir loading, over time (in hours), from macrospheres wherein the salicylate is encapsulated in an outer Eudragit® RL 100 coating and the acyclovir is encapsulated in the core. The outer drug loading is used to achieve rapid release (three hours) as compared to more long term release of the core drug (24 hours).
SMILES,time of release of drug from multi-drug macrospheres [h],time of release of drug from multi-drug macrospheres (listed as salicylate)
O=C([O-])c1ccccc1O.[Na+] [sodium salicylate],≤ 3,three
Nc1nc2c(ncn2COCCO)c(=O)[nH]1 [acyclovir],24,
